Data set [1] addresses T1, isoMnSOD (Mus musculus, UniProt P09671, DEL77-115).
T1 construct: Mitochondrial pellets were lysed in 1% CHAPS detergent; from tissue; host or cells: mouse cerebellum mitochondria
T1 sequence (P09671 with tags, fused parts or gaps DEL77-115): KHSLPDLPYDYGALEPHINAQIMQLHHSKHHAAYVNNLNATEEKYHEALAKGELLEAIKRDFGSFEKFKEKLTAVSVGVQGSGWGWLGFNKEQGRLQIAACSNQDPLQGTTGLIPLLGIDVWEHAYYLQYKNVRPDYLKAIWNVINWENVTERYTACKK
Put plainly: isoMnSOD peroxidative activity, cerebellum mitochondrial extracts on nitrocellulose strips (Example 20). The format is biochemical. Particulars: 1 μM of compound, 30 min at room temperature; cerebellum of 4 week mice; 1 mM hydrogen peroxide, luminol; FIG. 7. The protocol: Protein extracts containing isoMnSOD were prepared from cerebellum from 4 week mice by first forming a liquid nitrogen powder, resuspended with five volumes of ice-cold lysis buffer (in mM: 20 HEPES-KOH, pH 7.5, 10 KCl, 1.5 MgCl2, 1 DTT, 1 EDTA, 1 EGTA, and 0.1 PMSF) containing 70 mM mannitol and 250 mM sucrose and homogenizing with a Dounce homogenizer. Extract was centrifuged at 750 g for 10 min at 4° C. and the supernatant was then centrifuged at 10,000 g for 15 min at 4° C. to pellet the mitochondrial pellet, which was then stored frozen. Mitochondrial pellets were lysed in 1% CHAPS detergent containing 50 mM Tris-Cl, pH 8.0, 500 mM NaCl and then loaded onto a native 5% polyacrylamide gel. Protein concentration was measured by using the Bradford protein assay kit. After transfer to nitrocellulose, nitrocellulose strips were incubated with 1 μM of compound in 50 mM Tris-HCl, 50 mM NaCl, 5 mM EDTA, pH 8.0 for 30 min at room temperature, then washed extensively with incubation buffer alone. The peroxidative activity of isoMnSOD was measured using 100 of Femtomole luminol (Pierce) containing 1 mM hydrogen peroxide per nitrocellulose strip and exposed to x-ray film.

Data set [2] relates to AMP kinase phosphorylation at Thr172. Put plainly: Doxorubicin-induced activation of AMP kinase in heart explants, western immunoblot (Example 22). As to conditions: rat heart explants, 1 mM doxorubicin overnight; FIG. 9 Lane 2. The format is cell-based. The protocol: Hearts from 4 week rats were excised and minced without trypsin in 50:50 medium M199:MCDB 10% FBA containing 5 mM Creatine, 2 mM L-carnitine and 5 mM taurine. Explants were incubated overnight at 37° C. in a 5% CO2 incubator untreated (Lane 1), with 1 mM doxorubicin (Lane 2), and with 1 mM doxorubicin and 4 μM 2-(3,4-dihydroxy-phenyl)-N-heptadec-8-enyl-acetamide (IV) (Lane 3). Explants were frozen at −70° C., liquid nitrogen powders were prepared and lysed and denatured in 2% SDS with 5% BME with boiling for 5 min. Protein extracts were examined by western immunoblotting using a rabbit monoclonal recognizing Phospho-AMP Kinase-α (Thr172) (CellSignal).
The AMP kinase was activated by an elevated AMP(high)/ATP(low) ratio due to cellular and environmental stress, such as heat shock, hypoxia and ischemia. Elevated AMP/ATP ratio and activation of AMPK by phosphorylation at Thr172 can also occur by uncoupling mitochondrial oxidative phosphorylation from respiration with oligomycin and thereby loss of mitochondrial ATP synthesis.
(In general: Immunoblotting shows a protein as a band on a membrane.)

The test system of data set [3] is altMnSODreport reporter expression. Briefly: Reporter gene system (altMnSODreport) to analyze compounds for toxicity (Example 17). The format is cell-based. Particulars: cells comprising the reporter gene system; written in present tense. The source says:
The test reporter system utilizes a recombinant DNA construct that contains an in frame fusion of a genomic fragment spanning MnSOD Exon 2 to Exon 4, but which also harbors a mutant MnSOD Exon 3, (i.e. frameshift mutation), to a B-galactosidase gene, or Green Fluorescence Protein (“altMnSODreport”). Alternative splicing and skipping of MnSOD (coding) Exon 3 will result in a fusion protein comprising a short stretch of MnSOD E2 and E4 coding sequences N-terminal to a reporter protein; the MnSODE2E4 amino acid sequence is 20 amino acids and should not interfere with the expression of the reporter. […]
Breast cancer cell line, MDA-MB-435, Her-2/neu over-expressing (ATCC), fibroblast cells lines NIH3T3 and B104, which are NIH3T3 cells transfected with the rat ErbB2/Her2 oncogene, and normal primary cells (Clonetics; rat cardiomyocytes, donated by Kathryn Maschhoff, MD PhD, Neonatology, University of Pennsylvania) are treated with doxorubicin alone and in combination with the rat ErbB2/Her2 17.6.4 monoclonal antibody, which downregulates the human and rat Her2 receptor (Zhang et al., 1999) (Oncogene), and Herceptin™ (Genentech). It is also determined if the Her2 mAbs induces isoMnSOD expression in untransfected cells and cells transfected with altMnSODreport. […]
For orientation: A reporter such as luciferase makes a cellular process visible.

For data set [4], the system named is isoMnSOD expression. Briefly: Doxorubicin induction of isoMnSOD expression in adult heart explants, Western Blot (Example 9). The format is cell-based, rat. Particulars: 3 days, 0.1 nM to 1.0 μM Doxorubicin in AdvDMEM 2% FBS, FIG. 3.
Description: Briefly, after rats (5 weeks old) were killed by decapitation, the hearts were aseptically excised and residual blood was removed. The heart was perfused in Joklik's medium (containing Joklik's minimal essential medium, 25 mmol/L glutamic acid, 30 mmol/L taurine, and 1 mmol/L adenosine) without recirculation on a modified Langendorff apparatus for approximately 10 minutes at 37° C. The perfusion was then continued for 30 minutes at the same temperature, with recirculation in Joklik's medium containing collagenase type II (100 U/mL). After perfusion, the ventricles were cut into small pieces and tritulated in 0.05% Trypsin/EDTA for 10 min. Cardiac explants were cultured overnight on laminin-coated (20 μg per well) 35-mm six-well plates in medium 199 containing 5% FBS, 5 mM creatine, 2 mM L-carnitine, and 5 mM taurine. Explants were treated with doxorubicin (Sigma) shortly after plating for 24 hrs at 1 mM.
Data set [5] concerns the target T2, MnSOD-Exon3-deleted isoform (isoMnSOD) (Homo sapiens, UniProt P04179).
T2 sequence (P04179 25-183 isoform P04179-2 limits assumed): T1 sequence (P09671 with tags, fused parts or gaps DEL77-115) with A40V, H46Q, E66D, V75A, Q93R, R95H, S102P, T155M
Put plainly: Detection of inhibitors bound to isoMnSOD by combined immunoprecipitation/western blot (Example 13). As to conditions: immunoprecipitation with anti-dopamine or anti-serotonin antibody, isoMnSOD detected; FIG. 2A, 2B. The format is binding. The protocol: Covalent modification of the MnSOD-Exon3-deleted isoform was measured by a combined immunoprecipitation/western blot analysis. Immunoblots for detecting AA-DA, EPA-DA, DHA-DA, C18:4(ω-3)-DA adducts were performed using anti-dopamine rabbit polyclonal (Chemicon) and anti-serotonin goat polyclonal antibodies (ImmunoStar), respectively. After immunoprecipitating using an antibody against the inhibitor, isoMnSOD was detected as described above.

In data set [6] the test system is mitochondrial peroxidase activity (isoMnSOD). Briefly: Peroxidative assay (ROS-activity blot) of mitochondrial extracts from treated pancreatic explants (Example 12). The format is cell-based, pig. As to conditions: pancreatic explant cultured 1 hr at 37° C. with equal volume of 2 μM compound, FIG. 1. Here is the method:
F10 medium was used throughout the procedure. Pancreas (8 grams) from a 3 kilo pig was minced, washed twice, and 1 g of tissue was resuspended in 5 ml of F10 medium. […] Explants were stored frozen at −70° C. Tissue was homogenized in Buffer A at 4° C. and mitochondria was isolated by differential centrifugation and stored frozen at −70° C. Peroxidative assay of native mitochondrial extracts analyzed by the ROS-activity blot.

Data set [7] concerns isoMnSOD. Briefly: Inhibition of pro-oxidant activity of isoMnSOD, at least one of the assays of the Examples. As to conditions: according to at least one of the assays provided in the Examples.
The test system of data set [8] is isoMnSOD. Put plainly: Drug inhibition method: peroxidative activity of isoMnSOD on PVDF strips (Example 4). Particulars: 1 μM test compound in TBS, 30 minutes; pancreatic mitochondria native extracts on PVDF; 1 mM H2O2, luminol; FIG. 4.
Description: Each test compound was prepared by mixing 5 μL of a 1 mM test compound stock solution in ethanol with 5 μL of 0.1 M KOH, followed by the addition of 5 ml of TBS for a final concentration of 1 μM test compound. Equal amounts of native protein extracts from pancreatic mitochondria (obtained according to the protocol of Example 5) were loaded in separate wells and resolved in a 7% PAGE gel without SDS, electrotransferred to PVDF and divided into strips. Each PVDF strip was incubated with 1 μM of test compound in TBS for 30 minutes, washed twice in TBS for 20 minutes, and the peroxidative activity of isoMnSOD was measured by incubation of each strip with 1 mM H2O2 in 0.4 ml of the luminol solution contained within the Femtomole chemiluminescence assay kit (Pierce) and exposed to x-ray film (FIG. 4).
All procedures were carried out at 4° C. Mitochondria were obtained from a liquid nitrogen powder of one pig pancreas (˜8 g), which was resuspended in 15 ml of buffer A containing following protease inhibitors: 1 μg/ml aprotinin, 1 μg/ml pepstatin A, 1 μg/ml chymostatin A, 2 μg/ml leupeptin, 2 μM benzamide hydrochloride, and 1 μM phenylmethylsulfonyl fluoride. Tissue was broken with a Potter homogenizer and the homogenate was centrifuged for 10 min at 800 g to remove cell debris. The supernatant was centrifuged at 10,000 g from 15 min to recover mitochondria. The mitochondrial pellet was washed twice with a hand held Dounce homogenizer and mitochondria were stored frozen. Mitochondria were lysed by slowly adding 1 ml of M-Per (Pierce) containing 1/10 vol 5M NaCl and 1/10 vol Buffer A. The mitochondrial lysate was subsequently clarified by centrifugation for 10 min at 2000 g.

Changes are numbered by the printed parent chain.

Turning to `CCCCCCCC/C=C\CCCCCCCNC(=O)Cc1cc(O)ccc1O` [2-(2,5-dihydroxy-phenyl)-N-heptadec-8-enyl-acetamide], the Inhibition entry in data set [1] was “yes”.

Turning to `COc1cccc2c1C(=O)c1c(O)c3c(c(O)c1C2=O)C[C@@](O)(C(=O)CO)C[C@@H]3O[C@H]1C[C@H](N)[C@H](O)[C@H](C)O1` [Doxorubicin], the “Activation of AMP kinase by phosphorylation at Thr172” value in data set [2] is “Activation”. For the same compound, the “expression of altMnSOD report” value in data set [3] is listed as “causes an increase”. The isoMnSOD expression result in data set [4] was “induced isoMnSOD expression”.

Consider `COC1=C(OC)C(=O)C(CCCCCCCCCCO)=C(C)C1=O` [Idebenone], for which, in data set [1], the Inhibition result is reported as “no”.

In the case of `CCCCC/C=C\C/C=C\C/C=C\C/C=C\CCCC(=O)NCCc1c[nH]c2ccc(O)cc12` [arachidonoyl-serotonin, arachidonoyl serotonin], in data set [5], the “binding to isoMnSOD (covalent modification)” value (shortened to “binding to isoMnSOD”) is reported as “able to bind to isoMnSOD”. Also, in data set [6], the “inhibition of mitochondrial peroxidase activity” value is on record as “inhibited the mitochondrial peroxidase activity”. In data set [7], the “inhibition of pro-oxidant activity of isoMnSOD” value is “inhibit pro-oxidant activity of isoMnSOD”.

Regarding `CC/C=C\C/C=C\C/C=C\C/C=C\C/C=C\C/C=C\CCC(=O)NCCc1ccc(O)c(O)c1` [docosahexaenoyl (DHA)-dopamine, docosahexaenoyl dopamine], in data set [5], the “binding to isoMnSOD” value was “able to bind to isoMnSOD”. Also, the “inhibition of peroxidative activity of isoMnSOD” value in data set [8] is reported as “inhibit peroxidative activity more significantly than the other compounds”. In addition, the “inhibition of mitochondrial peroxidase activity” value in data set [6] is reported as “inhibited the mitochondrial peroxidase activity”. In addition, the “inhibition of pro-oxidant activity of isoMnSOD” value in data set [7] is reported as “inhibit pro-oxidant activity of isoMnSOD”.

Consider `CC/C=C\C/C=C\C/C=C\C/C=C\C/C=C\CCCC(=O)NCCc1ccc(O)c(O)c1` [eicosapentaenoyl (EPA)-dopamine, eicosapentaenoyl dopamine], for which the “inhibition of peroxidative activity of isoMnSOD” value in data set [8] was “inhibit peroxidative activity more significantly than the other compounds”. In addition, the “inhibition of mitochondrial peroxidase activity” value in data set [6] is “did not inhibit peroxidase activity to the same effect”. The “inhibition of pro-oxidant activity of isoMnSOD” value in data set [7] is “inhibit pro-oxidant activity of isoMnSOD”.

For the compound Arachidonic acid-biotinimide, in data set [1], the Inhibition result is given as “yes”.

Consider C18:4(ω-3)-dopamine, for which the “binding to isoMnSOD” value in data set [5] is “able to bind to isoMnSOD”. In data set [8], the “inhibition of peroxidative activity of isoMnSOD” value is “inhibit peroxidative activity more significantly than the other compounds”. In addition, the “inhibition of mitochondrial peroxidase activity” value in data set [6] was “inhibited the mitochondrial peroxidase activity”. Also, in data set [7], the “inhibition of pro-oxidant activity of isoMnSOD” value is recorded as “inhibit pro-oxidant activity of isoMnSOD”.

As for Prostaglandin A1-biotinimide, in data set [1], the Inhibition entry is recorded as “yes”.

The record behind these values is patent US8426644B2, “Compositions and methods for inhibiting an isoform of human manganese superoxide dismutase” (MitoTek, LLC, priority 2005, dated 2013).
